This passage reports IC50 results from patent US11905274B2, “Receptor inhibitors, pharmaceutical compositions comprising the same and use thereof” (BEIJING TIDE PHARMACEUTICAL CO., LTD., priority 2018, dated 2024).

This assay addresses AT2 Receptor (AT2R) (Homo sapiens (Human), UniProt P50052). Description: Inhibitory activity on AT2 receptor (Tag-lite HTRF, Tb-labeled AT2R cells, angiotensin receptor red agonist). The class given is binding. As to conditions: 1 h at room temperature. (In general: Time-resolved FRET reads energy transfer from a long-lived donor to a nearby acceptor.)

Chain of AT2 Receptor (AT2R) (P50052 whole entry): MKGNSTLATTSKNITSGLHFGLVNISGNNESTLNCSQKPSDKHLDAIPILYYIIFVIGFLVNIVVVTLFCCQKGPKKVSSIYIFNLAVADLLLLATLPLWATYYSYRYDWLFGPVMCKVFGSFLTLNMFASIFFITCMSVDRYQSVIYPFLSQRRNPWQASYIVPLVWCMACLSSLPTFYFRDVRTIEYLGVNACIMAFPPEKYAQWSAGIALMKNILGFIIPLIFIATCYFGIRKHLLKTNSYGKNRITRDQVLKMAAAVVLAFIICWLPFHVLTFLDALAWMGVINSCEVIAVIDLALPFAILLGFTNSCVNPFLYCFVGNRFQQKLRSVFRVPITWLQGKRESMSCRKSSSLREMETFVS

By IC50 is commonly meant the concentration that inhibits the measured activity by half. Take `O=C(O)[C@@H]1CN(C(=O)OCc2cccs2)CCN1C(=O)N(c1ccccc1)c1ccccc1` [Compound C140, (S)-1-(diphenylcarbamoyl)-4-((thiophene-2-ylmethoxy)carbonyl) piperazine-2-carboxylic acid]: the IC50 is 331 nM.

In turn, `O=C(O)[C@@H]1CN(C(=O)N2c3ccccc3CCc3ccccc32)CCN1C(=O)N1c2ccccc2CCc2ccccc21` [Compound C76, (S)-1,4-bis(10,11-dihydro-5H-dibenzo [b,f]azepine-5-carbonyl)piperazine-2-carboxylic acid] gave an IC50 of 156 nM.

In turn, `Cc1ccc(CN(C(=O)N2CCN(C(=O)C(c3ccccc3)c3ccccc3)[C@H](C(=O)O)C2)C2CC2)s1` [Compound C153, (S)-4-(cyclopropyl((5-methylthiophen-2-yl)methyl)carbamoyl)-1-(2,2-diphenylacetyl)piperazine-2-carboxylic acid] registered an IC50 of 5.47 nM.

Take `COc1ccccc1N(C(=O)N1CCN(C(=O)N2c3ccccc3C=Cc3ccccc32)[C@H](C(=O)O)C1)c1ccccc1` [Compound C113, (S)-1-(5H-dibenzo[b,f]azepine-5-carbonyl)-4-((2-methoxylphenyl) (phenyl)carbamoyl) piperazine-2-carboxylic acid]: the IC50 is 7.37 nM.

Regarding `CN(Cc1ccccc1)C(=O)N1CCN(C(=O)C(C)(c2ccccc2)c2ccccc2)[C@H](C(=O)O)C1` [Compound C133, (S)-4-(benzyl(methyl)carbamoyl)-1-(2,2-diphenylpropionyl) piperazine-2-carboxylic acid], the IC50 stood at 24.3 nM.

Regarding `CC(C(=O)N1CCN(C(=O)N2c3ccccc3CC(=O)c3ccccc32)[C@H](C(=O)O)C1)(c1ccccc1)c1ccccc1` [Compound C106, (S)-4-(2,2-diphenylpropionyl)-1-(10-oxo-10,11-dihydro-5H-dibenzo [b,f]azepine-5-carbonyl) piperazine-2-carboxylic acid], the IC50 came to 282 nM.

With `COc1ccccc1N(C(=O)N1CCN(C(=O)N2c3ccccc3C(=O)N(C)c3ccccc32)[C@H](C(=O)O)C1)c1ccccc1OC` [Compound C97, (S)-4-(bis(2-methoxyphenyl)carbamoyl)-1-(10-methyl-11-oxo-10,11-dihydro-5H-dibenzo [b,e][1,4]diazepine-5-carbonyl)piperazine-2-carboxylic acid], the IC50 worked out at 138 nM.

`O=C1Cc2ccccc2N(C(=O)N2CCN(C(=O)N(c3ccccc3F)c3ccccc3F)C[C@H]2C(=O)O)c2ccccc21` [Compound C91, (S)-4-(bis(2-fluophenyl)carbamoyl)-1-(10-oxo-10,11-dihydro-5H-dibenzo [b,f]azepine-5-carbonyl)piperazine-2-carboxylic acid] displayed an IC50 of 30.7 nM.

Take `COc1cccc(N(C(=O)N2CCN(C(=O)N3c4ccccc4CC(=O)c4ccccc43)[C@H](C(=O)O)C2)c2cccc(OC)c2)c1` [Compound C108, (S)-4-(bis(3-methoxylphenyl)carbamoyl)-1-(10-oxo-10,11-dihydro-5H-dibenzo [b,f]azepine-5-carbonyl)piperazine-2-carboxylic acid]: the IC50 came to 51.1 nM.

`CS(=O)(=O)NC(=O)[C@@H]1CN(C(=O)N2c3ccccc3CC(=O)c3ccccc32)CCN1C(=O)N(c1ccccc1)c1ccccc1` [Compound C149] showed an IC50 of 290 nM.

In turn, `O=C1Cc2ccccc2N(C(=O)N2CCN(C(=O)N(c3ccccc3)c3ccccc3)C[C@H]2c2nn[nH]n2)c2ccccc21` [Compound C104, (S)-4-(10-oxo-10,11-dihydro-5H-dibenzo[b,f]azepine-5-carbonyl)-N, N-diphenyl-3-(1H-tetrazol-5-yl)piperazine-1-carboxamide] registered an IC50 of 298 nM.

`O=C1Cc2ccccc2N(C(=O)N2CCN(C(=O)N(c3ccc(F)cc3)c3ccc(F)cc3)C[C@H]2C(=O)O)c2ccccc21` [Compound C105, (S)-4-(bis(4-fluorinephenyl)carbamoyl)-1-(10-oxo-10,11-dihydro-5H-dibenzo [b,f]azepine-5-carbonyl)piperazine-2-carboxylic acid] came in with an IC50 of 161 nM.

Turning to `O=C(O)[C@@H]1CN(C(=O)OCc2ccccc2)CCN1C(=O)C1(c2ccccc2)CCCCC1` [Compound C86, (S)-4-((benzyloxy)carbonyl)-1-(1-phenylcyclohexanecarbonyl) piperazine-2-carboxylic acid], the IC50 turned out to be 504 nM.

`O=C(O)[C@@H]1CN(C(=O)C2(c3ccccc3)CCCC2)CCN1C(=O)N(c1ccccc1)c1ccccc1` [Compound C83, (S)-1-(diphenylcarbamoyl)-4-(1-phenylcyclopentanecarbonyl) piperazine-2-carboxylic acid] returned an IC50 of 6.35 nM.

`O=C(O)[C@@H]1CN(C(=O)N(c2ccccc2)c2ccccc2)CCN1C(=O)C1(O)c2ccccc2-c2ccccc21` [Compound C85, (S)-4-(diphenylcarbamoyl)-1-(9-hydroxy-9H-fluorene-9-carbonyl)piperazine-2-carboxylic acid] returned an IC50 of 461 nM.

`CN(C)S(=O)(=O)NC(=O)[C@@H]1CN(C(=O)N(c2ccccc2)c2ccccc2)CCN1C(=O)N1c2ccccc2CC(=O)c2ccccc21` [Compound C103]: the 50% inhibitory concentration (IC50) was 334 nM.

`O=C(O)[C@@H]1CN(C(=O)N2CCC[C@@H]2c2ccccc2)CCN1C(=O)N(c1ccccc1)c1ccccc1` [Compound C128, (S)-1-(diphenylcarbamoyl)-4-((R)-2-phenylpyrrolidine-1-carbonyl) piperazine-2-carboxylic acid]: the IC50 came to 12.4 nM.

Compound `Cc1cc(CN(C(=O)N2CCN(C(=O)N(c3ccccc3)c3ccccc3)[C@H](C(=O)O)C2)C2CC2)cs1` [Compound C146, (S)-4-(cyclopropyl((5-methylthiophen-3-yl)methyl)carbamoyl)-1-(diphenylcarbamoyl) piperazine-2-carboxylic acid] displayed an IC50 of 14.2 nM.

Turning to `O=C(O)[C@@H]1CN(C(=O)C(c2ccccc2)c2ccccc2)CCN1C(=O)N1c2ccccc2Sc2ccccc21` [Compound C21, (S)-4-(2,2-diphenylacetyl)-1-(10H-phenothiazine-10-carbonyl)piperazine-2-carboxylic acid], the IC50 was found to be 190 nM.

Take `O=C1Nc2ccccc2N(C(=O)N2CCN(C(=O)N(c3ccccc3)c3ccccc3)C[C@H]2C(=O)O)c2ccccc21` [Compound C53, (S)-4-(diphenylcarbamoyl)-1-(11-oxo-10,11-dihydro-5H-dibenzo[b,e][1,4]diazepine-5-carbonyl)piperazine-2-carboxylic acid]: the IC50 is 1340 nM.

Take `CCN(Cc1ccccc1)C(=O)N1CCN(C(=O)N2c3ccccc3CC(=O)c3ccccc32)[C@H](C(=O)O)C1` [Compound C78, (S)-4-(benzyl(ethyl)carbamoyl)-1-(10-oxo-10,11-dihydro-5H-dibenzo [b,f]azepine-5-carbonyl) piperazine-2-carboxylic acid]: the IC50 is 88.2 nM.

`CN(Cc1ccccc1)C(=O)N1CCN(C(=O)N2c3ccccc3C=Cc3ccccc32)[C@H](C(=O)O)C1` [Compound C88, (S)-4-(benzyl(methyl)carbamoyl)-1-(5H-dibenzo[b,f]azepine-5-carbonyl) piperazine-2-carboxylic acid]: the IC50 stood at 387 nM.

For `Cc1ccccc1N(C(=O)N1CCN(C(=O)N2c3ccccc3C=Cc3ccccc32)[C@H](C(=O)O)C1)c1ccccc1` [Compound C59, (S)-1-(5H-dibenzo[b,f]azepine-5-carbonyl)-4-(phenyl(orthomethylphenyl)carbamoyl) piperazine-2-carb oxylic acid], the IC50 was found to be 67.9 nM.

Consider `Cc1ccc(CN(C)C(=O)N2CCN(C(=O)N(c3ccccc3)c3ccccc3)[C@H](C(=O)O)C2)s1` [Compound C135, (S)-1-(diphenylcarbamoyl)-4-(methyl((5-methylthiophen-2-yl)methyl)carbamoyl)piperazine-2-carboxylic acid], for which the IC50 worked out at 28.2 nM.

Regarding `CCN1C(=O)c2ccccc2N(C(=O)N2CCN(C(=O)N(c3ccccc3)c3ccccc3)C[C@H]2C(=O)O)c2ccccc21` [Compound C98, (S)-4-(diphenylcarbamoyl)-1-(10-ethyl-11-oxo-10,11-dihydro-5H-dibenzo[b,e][1,4]diazepine-5-carbonyl) piperazine-2-carboxylic acid], the IC50 came to 8.18 nM.

For the compound `CCN(Cc1ccc(C)s1)C(=O)N1CCN(C(=O)N(c2ccccc2)c2ccccc2)[C@H](C(=O)O)C1` [Compound C134, (S)-1-(diphenylcarbamoyl)-4-(ethyl((5-methylthiophen-2-yl)methyl)carbamoyl) piperazine-2-carboxylic acid], the IC50 was 18.5 nM.

For `CCN(Cc1csc(Cl)c1)C(=O)N1CCN(C(=O)N(c2ccccc2)c2ccccc2)[C@H](C(=O)O)C1` [Compound C150, (S)-4-(((5-chlorothiophene-3-yl)methyl)(ethyl)carbamoyl)-1-(diphenylcarbamoyl) piperazine-2-carboxylic acid], the IC50 is 26.1 nM.

As to `O=C(N1CCN(C(=O)N2c3ccccc3C=Cc3ccccc32)[C@H](c2nnn[nH]2)C1)N(c1ccccc1)c1ccccc1` [Compound C31, (S)-4-(5H-dibenzo[b,f]azepine-5-carbonyl)-N,N-diphenyl-3-(1H-tetrazol-5-yl)piperazine-1-carboxamide], the IC50 was found to be 219 nM.

`O=C1Cc2ccccc2N(C(=O)N2CCN(C(=O)N(c3ccccc3)c3ccccc3)C[C@H]2C(=O)NO)c2ccccc21` [Compound C123]: the IC50 turned out to be 503 nM.

`Cc1cc(CN(C)C(=O)N2CCN(C(=O)N(c3ccccc3)c3ccccc3)[C@H](C(=O)O)C2)sc1C` [Compound C144, (S)-4-(((4,5-dimethylthiophen-2-yl)methyl)(methyl)carbamoyl)-1-(diphenylcarbamoyl) piperazine-2-carboxylic acid]: the IC50 stood at 98.1 nM.

Compound `CCN(Cc1csc(C)c1)C(=O)N1CCN(C(=O)N(c2ccccc2)c2ccccc2)[C@H](C(=O)O)C1` [Compound C137, (S)-1-(diphenylcarbamoyl)-4-(ethyl((5-methylthiophen-3-yl)methyl)carbamoyl) piperazine-2-carboxylic acid] had an IC50 of 36.5 nM.

The compound `CCN(Cc1ccsc1)C(=O)N1CCN(C(=O)N2c3ccccc3CC(=O)c3ccccc32)[C@H](C(=O)O)C1` [Compound C79, (S)-4-(ethyl (thiophene-3-ylmethyl)carbamoyl)-1-(10-oxo-10,ll-dihydro-5H-dibenzo[b,f]azepine-5-carbonyl) piperazine-2-carboxylic acid] yielded an IC50 of 460 nM.
